Read-outs that look alike come from different tables or passages of the source.

We go through 6 compounds from patent US20240376097A1, “BCL-2 Inhibitor” (BeiGene Ltd., priority 2020, published 2024).

Series [1] can be described thus: Mouse PK Study. To be noted: plasma, male CD-1 mouse. It is filed as in vivo. The protocol: Biological Example: Mouse PK Study
The pharmacokinetics of compounds were evaluated in male CD-1 mouse via Intravenous (dose of 1 mg/kg) and Oral Administration (dose of 10 mg/kg). For intravenous administration study, test compounds were dissolved in DMSO/EtOH/Cremophor EL/D5W (2.5/10/20/67.5, by volume) and injected with a 1 mg/kg dose via tail vein. For oral administration study, test compounds were dissolved in PEG400/Phosal 50 PG/EtOH (30/60/10, by volume) and administrated to mice at 10 mg/kg by gavage. Blood was collected into EDTA-K2 anticoagulant tube at 5 (IV only). 15, and 30 min and 1, 2, 4, 8 and 24 h after administration. Approximately 30 μL blood was collected at each time point. And then the blood was centrifuged at 3000 g for 5 min at 4° C. using a centrifuge to obtain the plasma. The plasma sample was transferred into a tube and stored in a freezer at approximately −20° C. until the determination of concentration by LC-MS/MS. Pharmacokinetic parameter were estimated by using WinNonlin software (version 8.1, Pharsight Corporation, CA, USA) with non-compartmental method. The following pharmacokinetic parameters were calculated, whenever possible from the plasma concentration-time data: CL, Vd, T1/2, AUClast, AUCinf for IV administration and Tmax, Cmax, AUClast, AUCinf, T1/2 for PO administration. All animals are free fed before experiment. For comparison purpose, the PK results of certain compounds in previous disclosure were obtained using the same methods.

Series [2] in a line: Metabolic Stability Study, liver microsome incubation (mouse). In kind it is in vitro ADME. Conditions: mouse liver microsomes 0.5 mg/mL, 1 μM compound, NADPH; for half-life at 1 μM: NA^# = very stable, beyond the detection limits, read-out: T1/2 (min) mouse; for microsomal CLint at 1 μM: read-out: CLint (μL × min^−1 × mg^−1) mouse. The method in brief: (§1)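 Test compounds (1 μM) incubated at 37° C with 0.5 mg/mL liver microsomes plus NADPH regenerating system; samples quenched at 0, 30 and 60 min. Parent loss measured by LC-MS/MS, giving CLint and T1/2, with CLint normalised to microsomal protein concentration.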
(In general: Liver microsomes are vesicles of endoplasmic reticulum, rich in cytochrome P450 enzymes.)

Series [3] deals with recombinant human Bcl-2 D103Y protein (Homo sapiens (Human), UniProt P10415, D103Y). The series can be described thus: Bcl-2-D103Y Biochemical Assay (TR-FRET). In kind it is binding. To be noted: for IC50: TR-FRET, FITC labeled Bak peptide; for Ratio of Bcl-2 D103Y/Bcl-2 WT: ratio of IC50. The method, boiled down:
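Compounds titrated against the Bcl-2 D103Y–ligand interaction; inhibition derived from the TR-FRET emission ratio 490 nm/520 nm after 337 nm excitation. Four-parameter logistic fitting gave IC50.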

Series [4] deals with Recombinant human Bcl-2 protein (Homo sapiens (Human), UniProt P10415). The series can be described thus: Bcl-2 TR-FRET Assay. In kind it is binding. The method, boiled down: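 TR-FRET read (337 nm excitation, 520/490 nm emission) after 1 h with 0.5 nM FITC-labeled Bak peptide and Tb-cryptate anti-6His antibody. Bcl-2 at 0.05 nM had been pre-incubated 0.5 h with compound. IC50 fitted by four-parameter logistic equation.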
Background: TR-FRET usually uses a lanthanide donor and a delayed reading to cut background.

Series [5] in a line: Metabolic Stability Study, liver microsome incubation (human). In kind it is in vitro ADME. Conditions: human liver microsomes 0.5 mg/mL, 1 μM compound, NADPH; for microsomal CLint at 1 μM: read-out: CLint (μL × min^−1 × mg^−1) Human; for half-life at 1 μM: NA^# = very stable, beyond the detection limits, read-out: T1/2 (min) Human. The method, boiled down: as §1
Where [6] appears, read: Bcl-2 wild type, TR-FRET, read-out: Biochemical assay (IC50, nM) Bcl-2 WT.
Where [7] appears, read: wild type Bcl-2, unit inferred, read-out: Bcl-2 WT.

Chain of Recombinant human Bcl-2 protein (P10415 whole entry): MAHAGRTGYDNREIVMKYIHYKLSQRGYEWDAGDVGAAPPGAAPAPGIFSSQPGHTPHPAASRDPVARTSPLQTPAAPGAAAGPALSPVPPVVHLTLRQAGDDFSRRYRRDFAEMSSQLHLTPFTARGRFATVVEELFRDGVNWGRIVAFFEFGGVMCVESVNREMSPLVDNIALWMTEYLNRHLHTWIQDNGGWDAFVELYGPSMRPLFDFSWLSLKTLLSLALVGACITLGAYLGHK
Chain of recombinant human Bcl-2 D103Y protein (P10415 whole entry D103Y): as the sequence (P10415 whole entry) above, with D103Y counted along it

With `COc1ccc(CN2CCN(C3CC4(CCN(c5ccc(C(=O)NS(=O)(=O)c6ccc(NC[C@H]7CC[C@](C)(O)CC7)c([N+](=O)[O-])c6)c(Oc6cnc7[nH]ccc7c6)c5)CC4)C3)[C@H](c3ccccc3C(C)C)C2)cc1` [Example 19a, 2-((1H-pyrrolo[2,3-b]pyridin-5-yl)oxy)-N-((4-((((1r,4r)-4-hydroxy-4-methylcyclohexyl)methyl)amino)-3-nitrophenyl)sulfonyl)-4-(2-((R)-2-(2-isopropylphenyl)-4-(4-methoxybenzyl)piperazin-1-yl)-7-azaspiro[3.5]nonan-7-yl)benzamide], in series [1] (Iv dosing (1 mg/kg)), the AUC(0-t) (usually exposure summed from dosing to a finite time, without extrapolation to infinity) is 12300 ng·h/mL; the distribution volume (Vd) – broadly, the apparent volume that relates the amount in the body to the concentration in plasma or blood – is 0.48 L/kg; the clearance (commonly the rate of elimination divided by the concentration) came out at 1.4 mL/min/kg. For the same compound, in series [1] (Po dosing (10 mg/kg)), the AUC(0-t) worked out at 20000 ng·h/mL and the Cmax – broadly, the highest concentration seen after dosing – was 1590 ng/mL. In series [2], the half-life at 1 μM was determined as 346 min and the microsomal CLint at 1 μM worked out at 4 µL/min/mg. In series [3], the IC50 worked out at 0.15 nM and the “Ratio of Bcl-2 D103Y/Bcl-2 WT” value came to 2.6. Besides, the “ratio of Bcl-2 D103Y/Bcl-2 wt, compared with F91b in WO2019210828” value in series [3] (comparison in words) is reported as “significantly lower”. In addition, the IC50 in series [4] (setting [6]) is 0.057 nM. Besides, in series [4] (setting [7]), the IC50 was 0.057 nM. The microsomal CLint at 1 μM in series [5] was < 1 µL/min/mg.
As to `CC(C)c1ccccc1[C@@H]1CN(Cc2ccc(F)c(F)c2)CCN1C1CC2(CCN(c3ccc(C(=O)NS(=O)(=O)c4ccc(NC[C@H]5CC[C@](C)(O)CC5)c([N+](=O)[O-])c4)c(Oc4cnc5[nH]ccc5c4)c3)CC2)C1` (single isomer, unassigned) [Example 52a, 2-((1H-pyrrolo[2,3-b]pyridin-5-yl)oxy)-4-(2-((R or S)-4-(3,4-difluorobenzyl)-2-(2-isopropylphenyl)piperazin-1-yl)-7-azaspiro[3.5]nonan-7-yl)-N-((4-((((1r,4r)-4-hydroxy-4-methylcyclohexyl)methyl)amino)-3-nitrophenyl)sulfonyl)benzamide], in series [1] (Iv dosing (1 mg/kg)), the AUC(0-t) was determined as 6510 ng·h/mL, the Vd turned out to be 0.62 L/kg and the clearance amounted to 2.6 mL/min/kg. In series [1] (Po dosing (10 mg/kg)), this compound registered an AUC(0-t) of 20700 ng·h/mL and a Cmax of 2140 ng/mL. For the same compound, in series [3], the IC50 is 0.37 nM and the “Ratio of Bcl-2 D103Y/Bcl-2 WT” value was 2.4. For the same compound, in series [4] (setting [6]), the IC50 is 0.16 nM. Further, the IC50 in series [4] (setting [7]) is 0.16 nM.
Turning to `COc1cc(CN2CCN(C3CC4(C3)CN(c3ccc(C(=O)NS(=O)(=O)c5ccc(NC[C@H]6CC[C@](C)(O)CC6)c([N+](=O)[O-])c5)c(Oc5cnc6[nH]ccc6c5)c3)C4)[C@H](c3ccccc3C(C)C)C2)ccc1C1CC1` [Example 233, 2-((1H-pyrrolo[2,3-b]pyridin-5-yl)oxy)-4-(6-((R)-4-(4-cyclopropyl-3-methoxybenzyl)-2-(2-isopropylphenyl)piperazin-1-yl)-2-azaspiro[3.3]heptan-2-yl)-N-((4-((((1r,4r)-4-hydroxy-4-methylcyclohexyl)methyl)amino)-3-nitrophenyl)sulfonyl)benzamide], in series [1] (Iv dosing (1 mg/kg)), the AUC(0-t) came to 17200 ng·h/mL, the Vd worked out at 0.8 L/kg and the clearance was 1 mL/min/kg. Further, in series [1] (Po dosing (10 mg/kg)), the area under the curve AUC(0-t) worked out at 17400 ng·h/mL and the peak level (Cmax) was 1100 ng/mL. For the same compound, in series [2], the half-life at 1 μM came out at 253 min and the microsomal CLint at 1 μM is 5.5 µL/min/mg. In series [3], the IC50 came to 0.83 nM and the “Ratio of Bcl-2 D103Y/Bcl-2 WT” value is reported as 1.9. For the same compound, in series [4] (setting [6]), the IC50 came out at 0.43 nM. In addition, the IC50 in series [4] (setting [7]) was found to be 0.43 nM. In series [5], the half-life at 1 μM was determined as 534 min and the microsomal CLint at 1 μM came to 2.6 µL/min/mg.
With `COc1cc(CN2CCN(C3CC4(C3)CN(c3ccc(C(=O)NS(=O)(=O)c5ccc(NC[C@H]6CC[C@](C)(O)CC6)c([N+](=O)[O-])c5)c(Oc5cnc6[nH]cc(F)c6c5)c3)C4)[C@H](c3ccccc3C(C)C)C2)ccc1C1CC1` [Example 232, 4-(6-((R)-4-(4-cyclopropyl-3-methoxybenzyl)-2-(2-isopropylphenyl)piperazin-1-yl)-2-azaspiro[3.3]heptan-2-yl)-2-((3-fluoro-1H-pyrrolo[2,3-b]pyridin-5-yl)oxy)-N-((4-((((1r,4r)-4-hydroxy-4-methylcyclohexyl)methyl)amino)-3-nitrophenyl)sulfonyl)benzamide], in series [1] (Iv dosing (1 mg/kg)), the AUC(0-t) stood at 14400 ng·h/mL, the Vd was 1.2 L/kg and the clearance worked out at 1.2 mL/min/kg. In series [1] (Po dosing (10 mg/kg)), this compound yielded an AUC(0-t) of 18300 ng·h/mL and a Cmax of 1090 ng/mL. In addition, in series [2], the half-life at 1 μM amounted to 206 min and the microsomal CLint at 1 μM came to 6.7 µL/min/mg. Also, in series [3], the IC50 came to 0.95 nM and the “Ratio of Bcl-2 D103Y/Bcl-2 WT” value turned out to be 1.6. In addition, the IC50 in series [4] (setting [6]) came out at 0.7 nM. The IC50 in series [4] (setting [7]) was found to be 0.59 nM. Further, in series [5], the half-life at 1 μM came out at 822 min and the microsomal CLint at 1 μM was found to be 1.7 µL/min/mg.
For `COc1cc(CN2CCN(C3CC4(C3)CN(c3ccc(C(=O)NS(=O)(=O)c5ccc(NC[C@H]6CC[C@](C)(O)CC6)c([N+](=O)[O-])c5)c(Oc5cnc6[nH]cc(F)c6c5)c3)C4)[C@H](c3ccccc3C(C)C)C2)cc2cc(C)oc12` [Example 338, 2-((3-fluoro-1H-pyrrolo[2,3-b]pyridin-5-yl)oxy)-N-((4-((((1r,4r)-4-hydroxy-4-methylcyclohexyl)methyl)amino)-3-nitrophenyl)sulfonyl)-4-(6-((R)-2-(2-isopropylphenyl)-4-((7-methoxy-2-methylbenzofuran-5-yl)methyl)piperazin-1-yl)-2-azaspiro[3.3]heptan-2-yl)benzamide], in series [1] (Iv dosing (1 mg/kg)), the AUC(0-t) turned out to be 42900 ng·h/mL, the Vd amounted to 0.37 L/kg and the clearance was 0.4 mL/min/kg. Also, in series [1] (Po dosing (10 mg/kg)), the AUC(0-t) was determined as 11600 ng·h/mL and the Cmax came to 699 ng/mL. Further, in series [2], the half-life at 1 μM worked out at 538 min and the microsomal CLint at 1 μM was found to be 2.6 µL/min/mg. For the same compound, in series [3], the IC50 stood at 1 nM and the “Ratio of Bcl-2 D103Y/Bcl-2 WT” value is 1.7. Moreover, the IC50 in series [4] (setting [6]) worked out at 0.59 nM. Also, the IC50 in series [4] (setting [7]) was determined as 0.59 nM. Besides, in series [5], the half-life at 1 μM stood at 659 min and the microsomal CLint at 1 μM amounted to 2.1 µL/min/mg.
In series [1] (Iv dosing (1 mg/kg)), `COc1ccc(CN2CCN(C3CC4(CCN(c5ccc(C(=O)NS(=O)(=O)c6ccc(NCC7(F)CCOCC7)c([N+](=O)[O-])c6)c(Oc6cnc7[nH]ccc7c6)c5)CC4)C3)[C@H](c3ccccc3C(C)C)C2)cc1` (single isomer, unassigned) [Example 32, (R or S)-2-((1H-pyrrolo[2,3-b]pyridin-5-yl)oxy)-N-((4-(((4-fluorotetrahydro-2H-pyran-4-yl)methyl)amino)-3-nitrophenyl)sulfonyl)-4-(2-(2-(2-isopropylphenyl)-4-(4-methoxybenzyl)piperazin-1-yl)-7-azaspiro[3.5]nonan-7-yl)benzamide] came in with an AUC(0-t) of 10500 ng·h/mL, a Vd of 0.48 L/kg and a clearance of 1.5 mL/min/kg. For the same compound, in series [1] (Po dosing (10 mg/kg)), the AUC(0-t) was found to be 21200 ng·h/mL and the highest level (Cmax) was 1440 ng/mL. Further, in series [2], the half-life at 1 μM worked out at 202 min and the microsomal CLint at 1 μM was 6.8 µL/min/mg. Further, in series [3], the IC50 worked out at 0.11 nM and the “Ratio of Bcl-2 D103Y/Bcl-2 WT” value was 1.1. In addition, the IC50 in series [4] (setting [6]) was determined as 0.096 nM. Further, in series [4] (setting [7]), the IC50 was determined as 0.096 nM. In addition, in series [5], the half-life at 1 μM turned out to be 533 min and the microsomal CLint at 1 μM turned out to be 2.6 µL/min/mg.
